From patent US9809598B2 (Merck Patent GmbH, priority 2014, dated 2017) come the findings set out here.

Structures can show the parent of a compound that is named as a salt.

Assay [1] concerns the target T1, TNKS2 (Homo sapiens, UniProt Q9H2K2).
T1 construct: GST-tagged Tnks-2 (873-1166 aa, prepared in-house); made in house
Description: TNKS2 activity ELISA (autoparsylation assay). The conditions noted are these: GST-tagged Tnks-2 (873-1166 aa); read-out: IC50 [M] TNKS2 ELISA. Format: biochemical. The protocol: (§1) Description of the TNKS1 and TNKS2 ELISA Assay
(§2) Biochemical Activity Testing of TNKS 1 and 2: Activity ELISA (Autoparsylation Assay)
(§3) For analysis of autoparsylation activity of TNKS 1 and 2 an activity ELISA iss performed: In the first step GST tagged TNKS is captured on a Glutathione coated plate. Then the activity assay with biotinylated NAD is performed in the absence/presence of the compounds. During the enzymatic reaction GST tagged TNKS transfers biotinylated ADP-ribose to itself from biotinylated NAD as co-substrate. For the detection streptavidin-HRP conjugate is added that binds to the biotinylated TNKS and is thereby captured to the plates. The amount of biotinylated resp. autoparsylated TNKS is detected with a luminescence substrate for HRP. The level of the luminescence signal correlats directly with the amount of autoparsylated TNKS and therefore with activity of TNKS.
(§4) The activity ELISA is performed in 384 well Glutathione coated microtiter plates (Express capture Glutathione coated plate, Biocat, Heidelberg, Germany). The plates are pre-equilibrated with PBS. […] The plates are washed 3 times with PBS-Tween-20. The wells are blocked by incubation at room temperature for 20 minutes with 50 μl blocking buffer (PBS, 0.05% Tween-20, 0.5% BSA). Afterwards the plates are washed 3 times with PBS-Tween-20. […] The reaction is stopped by 3 times washing with PBS-Tween-20. For the detection 50 μl of 20 ng/μl Streptavidin, HRP conjugate (MoBiTec, Göttingen, Germany) in PBS/0.05% Tween-20/0.01% BSA are added and the plates are incubated for 30 minutes at room temperature. After three times washing with PBS-Tween-20 50 μl of SuperSignal ELISA Femto Maximum sensitivity substrate solution (ThermoFisherScientific (Pierce), Bonn, Germany) are added. Following a 1 minute incubation at room temperature luminescence signals are measured with an Envision multimode reader (Perkin Elmer LAS Germany GmbH) at 700 nm. The full value used is the inhibitor-free reaction. […] The inhibitory values (IC50) are determined using either the program Symyx Assay Explorer® or Condosseo® from GeneData.
In general terms: An ELISA detects its analyte on a solid surface through an enzyme-linked reagent.

Assay [2] concerns the target T2, TNKS1 (Homo sapiens, UniProt O95271).
T2 construct: GST-tagged Tnks-1 (1023-1327 aa, prepared in-house); made in house
As to the kind of experiment: TNKS1 activity ELISA (autoparsylation assay). Format: biochemical. The conditions noted are these: GST-tagged Tnks-1 (1023-1327 aa). On the procedure: as §1, §2, §3, §4

Assay [3] deals with Tankyrases. The conditions noted are these: read-out: EC50 [M] TNKS cellular assay; DLD1 cells, 24 hours, Axin2 increase.
Description: Measurement of Cellular Inhibition of Tankyrase
Cells of the colon carcinoma cell line DLD1 are plated in 96 well plates with 1.5×10^4 cells per well. Next day, cells are treated with a serial dilution of test compound in seven steps as triplicates with a final DMSO concentration of 0.3%. […] The amount of isolated Axin2 protein is determined in a Luminex^200 machine (Luminex Corporation) according to the manufacturer's instruction by counting 100 events per well. […] As controls cells are treated with solvent alone (neutral control) and with a Tankyrase reference inhibitor IWR-2 (3E−06 M) which refers as control for maximum increase of Axin2. For analysis, the obtained data are normalized against the untreated solvent control and fitted for determination of the EC50 values using the Assay Explorer software (Accelrys).

T2 sequence (O95271 1023-1327): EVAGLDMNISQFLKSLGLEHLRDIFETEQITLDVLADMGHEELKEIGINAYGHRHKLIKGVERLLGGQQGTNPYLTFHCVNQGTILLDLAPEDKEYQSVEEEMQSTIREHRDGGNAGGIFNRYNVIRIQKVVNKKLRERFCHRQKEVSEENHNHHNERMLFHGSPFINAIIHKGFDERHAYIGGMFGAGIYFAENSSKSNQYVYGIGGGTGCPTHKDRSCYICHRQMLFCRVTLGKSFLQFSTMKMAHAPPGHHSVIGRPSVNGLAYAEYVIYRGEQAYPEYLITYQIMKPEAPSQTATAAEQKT
T1 sequence (Q9H2K2 873-1166): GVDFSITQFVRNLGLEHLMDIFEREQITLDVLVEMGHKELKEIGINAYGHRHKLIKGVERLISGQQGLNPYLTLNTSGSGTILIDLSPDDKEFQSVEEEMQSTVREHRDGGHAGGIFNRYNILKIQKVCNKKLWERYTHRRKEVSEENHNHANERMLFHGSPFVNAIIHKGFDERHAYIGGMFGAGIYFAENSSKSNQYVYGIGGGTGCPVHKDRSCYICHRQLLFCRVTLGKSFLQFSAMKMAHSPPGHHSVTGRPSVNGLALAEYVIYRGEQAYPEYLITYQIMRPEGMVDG

`CCc1cc(=O)[nH]c(CCCC(=O)N2CCC(C(=O)c3ccc(OC)nc3)CC2)n1` [Compound C253, 6-Ethyl-2-{4-[4-(6-methoxy-pyridine-3-carbonyl)-piperidin-1-yl]-4-oxo-butyl}-3H-pyrimidin-4-one]: the results for the IC50 in assay [1] and in assay [2] were 1.9e-08 M and 31 nM, respectively. Also, the EC50 (in general, the concentration at which the effect is half-maximal) in assay [3] worked out at 7e-07 M.

For the compound `Cc1nc(CCCC(=O)N2CCC(C(=O)c3cnn(C)c3)CC2)[nH]c(=O)c1C` [Compound C242, 5,6-Dimethyl-2-{4-[4-(1-methyl-1H-pyrazole-4-carbonyl)-piperidin-1-yl]-4-oxo-butyl}-3H-pyrimidin-4-one], the concentration for half-maximal inhibition (IC50) (usually the concentration at which inhibition is half-maximal) was 7.1e-09 M in assay [1] and 24 nM in assay [2]. Further, the EC50 in assay [3] worked out at 8.8e-07 M.

Take `O=C(c1ccc(F)c(F)c1)C1CCN(C(=O)CCCc2nc3c(c(=O)[nH]2)COCC3)CC1` [Compound C262, 2-{4-[4-(3,4-Difluorobenzoyl)-1-piperidyl]-4-oxo-butyl}-3,5,7,8-tetrahydro-pyrano[4,3-d]pyrimidin-4-one]: the IC50 stood at 1.2e-09 M in assay [1] and 7.1 nM in assay [2].

In the case of `COc1ccc(C(=O)C2CCN(C(=O)CCCc3cn4cccc4c(=O)[nH]3)CC2)cc1C` [Compound C4, 3-{4-[4-(4-Methoxy-3-methyl-benzoyl)-piperidin-1-yl]-4-oxo-butyl}-2H-pyrrolo[1,2-a]pyrazin-1-one], the IC50 was 1.5e-10 M in assay [1] and 0.14 nM in assay [2]. The EC50 in assay [3] was 3.4e-10 M.

As for `CCc1cc(=O)[nH]c(CCCC(=O)N2CCC(C(=O)c3ccc(OC)cc3)CC2)n1` [Compound C251, 6-Ethyl-2-{4-[4-(4-methoxy-benzoyl)-piperidin-1-yl]-4-oxo-butyl}-3H-pyrimidin-4-one], the figures for the IC50 in assay [1] and in assay [2] were 2.9e-09 M and 7.8 nM, respectively. Further, the concentration giving a half-maximal response (EC50) in assay [3] turned out to be 7e-08 M.

As for `COc1ccc(C(=O)C2CCN(C(=O)CCCc3cn4nc(C)cc4c(=O)[nH]3)CC2)cc1` [Compound C12, 6-{4-[4-(4-Methoxy-benzoyl)-piperidin-1-yl]-4-oxo-butyl}-2-methyl-5H-pyrazolo[1,5-a]pyrazin-4-one], the concentration for half-maximal inhibition (IC50) in assay [1] stood at 1.4e-10 M; in assay [2] it was 0.13 nM. Moreover, the EC50 in assay [3] amounted to 4.9e-10 M.

On to `CC(F)(F)c1ccc(C(=O)C2CCN(C(=O)CCCc3nc4c(c(=O)[nH]3)COCC4)CC2)cc1` [Compound C263, 2-{4-{4-[4-(1,1-Difluoroethyl)benzoyl]-1-piperidyl}-4-oxo-butyl}-3,5,7,8-tetra-hydropyrano[4,3-d]pyrimidin-4-one], for which the values for the IC50 in assay [1] and in assay [2] were 3.3e-10 M and 5.1 nM, respectively.

Turning to `COc1ccc(C(=O)C2CCN(C(=O)CCCc3nc(C(C)C)cc(=O)[nH]3)CC2)cn1` [Compound C256, 4-Isopropyl-2-{4-[4-(6-methoxypyridine-3-carbonyl)-1-piperidyl]-4-oxo-butyl}-1H-pyrimidin-6-one trifluoroacetate], the results for the IC50 in assay [1] and in assay [2] were 6.5e-08 M and 160 nM, respectively. Besides, the concentration for a half-maximal effect (EC50) in assay [3] was 2.6e-06 M.

`COc1ccc(C(=O)C2CCN(C(=O)CCCc3nc4c(C)scc4c(=O)[nH]3)CC2)cn1` [Compound C114] had a 50% inhibitory concentration (IC50) in assay [2] of 0.68 nM.

Regarding `COc1ccc(C(=O)C2CCN(C(=O)CCCc3noc4ccccc34)CC2)cc1` [Compound C258, 4-(1,2-Benzoxazol-3-yl)-1-[4-(4-methoxybenzoyl)-1-piperidyl]butan-1-one], the figures for the IC50 in assay [1] and in assay [2] were 9.5e-08 M and 150 nM, respectively.

Turning to `O=C(c1ccc(F)cc1)C1CCN(C(=O)CCCc2noc3ccccc23)CC1` [Compound C259, 4-(1,2-Benzoxazol-3-yl)-1-[4-(4-fluorobenzoyl)-1-piperidyl]butan-1-one], the results for the IC50 in assay [1] and in assay [2] were 4.6e-07 M and 730 nM, respectively.

For `CCc1cc(=O)[nH]c(CCCC(=O)N2CCC(C(=O)c3ccc(F)cc3)CC2)n1` [Compound C252, 6-Ethyl-2-{4-[4-(4-fluoro-benzoyl)-piperidin-1-yl]-4-oxo-butyl}-3H-pyrimidin-4-one], the half-inhibitory concentration (IC50) was 1.7e-08 M in assay [1] and 35 nM in assay [2].
